Test results taken from ChEMBL document CHEMBL3885881, “DrugMatrix”.

Organism: Rattus norvegicus
Assay: DrugMatrix - Regimen: Daily Repeat
Assay type: toxicity, organism-based, Sprague-Dawley
Design: regimen Daily Repeat, gender Male, age 6-8 weeks
Details: in vivo, po, route oral GAVAGE, vehicle .5 % CMC; for ABSOLUTE BASOPHIL / ABSOLUTE EOSINOPHIL / ABSOLUTE LYMPHOCYTE / ABSOLUTE MONOCYTE / ABSOLUTE SEGMENTED NEUTROPHIL / BASOPHIL / EOSINOPHIL / ERYTHROCYTE COUNT / HEMATOCRIT / HEMOGLOBIN / LEUKOCYTE COUNT / LYMPHOCYTE / MEAN CORPUSCULAR HEMOGLOBIN / MEAN CORPUSCULAR HEMOGLOBIN CONCENTRATION / MEAN CORPUSCULAR VOLUME / MONOCYTE / NEUTROPHIL / NUCLEATED RED BLOOD CELLS / PLATELET COUNT: tissue Blood; for ALANINE AMINOTRANSFERASE / ALBUMIN / ALKALINE PHOSPHATASE / ASPARTATE AMINOTRANSFERASE / BLOOD UREA NITROGEN / CARBON DIOXIDE / CHLORIDE / CHOLESTEROL / CREATINE PHOSPHOKINASE / CREATININE / GLUCOSE / LACTATE DEHYDROGENASE / LIPASE / PHOSPHORUS / POTASSIUM / SODIUM / TOTAL BILIRUBIN / TOTAL PROTEIN / URIC ACID: tissue Plasma
[1] = 100 mg/kg, 72 h, dose level Low, time 3 day
[2] = 100 mg/kg, 120 h, dose level Low, time 5 day
[3] = 1500 mg/kg, 72 h, dose level High, time 3 day
[4] = 1500 mg/kg, 120 h, dose level High, time 5 day

CC(C)Oc1ccc2c(=O)c(-c3ccccc3)coc2c1 [IPRIFLAVONE]
ABSOLUTE BASOPHIL [1]: 0 CELLS/uL | ABSOLUTE EOSINOPHIL [1]: 99.33 CELLS/uL | ABSOLUTE LYMPHOCYTE [1]: 13635.33 CELLS/uL | ABSOLUTE MONOCYTE [1]: 415.67 CELLS/uL | ABSOLUTE SEGMENTED NEUTROPHIL [1]: 2916.33 CELLS/uL | BASOPHIL [1]: 0% | EOSINOPHIL [1]: 0.67% | ERYTHROCYTE COUNT [1]: 5.96 x10E6/uL | HEMATOCRIT [1]: 37.1% | HEMOGLOBIN [1]: 14.43 G/DL | LEUKOCYTE COUNT [1]: 17.07 x10E3/uL | LYMPHOCYTE [1]: 80.33% | MEAN CORPUSCULAR HEMOGLOBIN [1]: 24.23 pg | MEAN CORPUSCULAR HEMOGLOBIN CONCENTRATION [1]: 38.93 G/DL | MEAN CORPUSCULAR VOLUME [1]: 62.3 fL | MONOCYTE [1]: 2.33% | NEUTROPHIL [1]: 16.67% | NUCLEATED RED BLOOD CELLS [1]: 0 /100WBC | PLATELET COUNT [1]: 1359 x10E3/uL | ALANINE AMINOTRANSFERASE [1]: 44 u/L | ALBUMIN [1]: 4.53 G/DL | ALKALINE PHOSPHATASE [1]: 342.67 u/L | ASPARTATE AMINOTRANSFERASE [1]: 79.33 u/L | BLOOD UREA NITROGEN [1]: 19.67 mg/dL | CARBON DIOXIDE [1]: 24.33 mmol/L | CHLORIDE [1]: 97.67 MEQ/L | CHOLESTEROL [1]: 61.67 mg/dL | CREATINE PHOSPHOKINASE [1]: 241.33 u/L | CREATININE [1]: 0.23 mg/dL | GLUCOSE [1]: 153.33 mg/dL | LACTATE DEHYDROGENASE [1]: 129.33 u/L | LIPASE [1]: 9.67 u/L | PHOSPHORUS [1]: 11.17 mg/dL | POTASSIUM [1]: 7.3 MEQ/L | SODIUM [1]: 139.57 MEQ/L | TOTAL BILIRUBIN [1]: 0.23 mg/dL | TOTAL PROTEIN [1]: 6.17 G/DL | URIC ACID [1]: 2.23 mg/dL | ABSOLUTE BASOPHIL [2]: 0 CELLS/uL | ABSOLUTE EOSINOPHIL [2]: 57.67 CELLS/uL | ABSOLUTE LYMPHOCYTE [2]: 12897.67 CELLS/uL | ABSOLUTE MONOCYTE [2]: 315.33 CELLS/uL | ABSOLUTE SEGMENTED NEUTROPHIL [2]: 1196 CELLS/uL | BASOPHIL [2]: 0% | EOSINOPHIL [2]: 0.33% | ERYTHROCYTE COUNT [2]: 6.06 x10E6/uL | HEMATOCRIT [2]: 36.3% | HEMOGLOBIN [2]: 14.4 G/DL | LEUKOCYTE COUNT [2]: 14.47 x10E3/uL | LYMPHOCYTE [2]: 89% | MEAN CORPUSCULAR HEMOGLOBIN [2]: 23.8 pg | MEAN CORPUSCULAR HEMOGLOBIN CONCENTRATION [2]: 39.67 G/DL | MEAN CORPUSCULAR VOLUME [2]: 59.93 fL | MONOCYTE [2]: 2% | NEUTROPHIL [2]: 8.67% | NUCLEATED RED BLOOD CELLS [2]: 0.33 /100WBC | PLATELET COUNT [2]: 1112 x10E3/uL | ALANINE AMINOTRANSFERASE [2]: 47 u/L | ALBUMIN [2]: 4.3 G/DL | ALKALINE PHOSPHATASE [2]: 297.33 u/L | ASPARTATE AMINOTRANSFERASE [2]: 91.33 u/L | BLOOD UREA NITROGEN [2]: 15 mg/dL | CARBON DIOXIDE [2]: 25.33 mmol/L | CHLORIDE [2]: 100.67 MEQ/L | CHOLESTEROL [2]: 64 mg/dL | CREATINE PHOSPHOKINASE [2]: 318.67 u/L | CREATININE [2]: 0.19 mg/dL | GLUCOSE [2]: 158.67 mg/dL | LACTATE DEHYDROGENASE [2]: 474.67 u/L | LIPASE [2]: 9 u/L | PHOSPHORUS [2]: 11.83 mg/dL | POTASSIUM [2]: 6.46 MEQ/L | SODIUM [2]: 142.8 MEQ/L | TOTAL BILIRUBIN [2]: 0.13 mg/dL | TOTAL PROTEIN [2]: 5.93 G/DL | URIC ACID [2]: 1.7 mg/dL | ABSOLUTE BASOPHIL [3]: 0 CELLS/uL | ABSOLUTE EOSINOPHIL [3]: 0 CELLS/uL | ABSOLUTE LYMPHOCYTE [3]: 12351.67 CELLS/uL | ABSOLUTE MONOCYTE [3]: 95 CELLS/uL | ABSOLUTE SEGMENTED NEUTROPHIL [3]: 2086.67 CELLS/uL | BASOPHIL [3]: 0% | EOSINOPHIL [3]: 0% | ERYTHROCYTE COUNT [3]: 5.63 x10E6/uL | HEMATOCRIT [3]: 34.7% | HEMOGLOBIN [3]: 13.77 G/DL | LEUKOCYTE COUNT [3]: 14.53 x10E3/uL | LYMPHOCYTE [3]: 85% | MEAN CORPUSCULAR HEMOGLOBIN [3]: 24.47 pg | MEAN CORPUSCULAR HEMOGLOBIN CONCENTRATION [3]: 39.67 G/DL | MEAN CORPUSCULAR VOLUME [3]: 61.63 fL | MONOCYTE [3]: 0.67% | NEUTROPHIL [3]: 14.33% | NUCLEATED RED BLOOD CELLS [3]: 0.33 /100WBC | PLATELET COUNT [3]: 1247.33 x10E3/uL | ALANINE AMINOTRANSFERASE [3]: 44.33 u/L | ALBUMIN [3]: 4.3 G/DL | ALKALINE PHOSPHATASE [3]: 325 u/L | ASPARTATE AMINOTRANSFERASE [3]: 80.33 u/L | BLOOD UREA NITROGEN [3]: 15.33 mg/dL | CARBON DIOXIDE [3]: 27 mmol/L | CHLORIDE [3]: 101 MEQ/L | CHOLESTEROL [3]: 68.67 mg/dL | CREATINE PHOSPHOKINASE [3]: 256.33 u/L | CREATININE [3]: 0.15 mg/dL | GLUCOSE [3]: 149.33 mg/dL | LACTATE DEHYDROGENASE [3]: 181 u/L | LIPASE [3]: 9.33 u/L | PHOSPHORUS [3]: 12.3 mg/dL | POTASSIUM [3]: 6.1 MEQ/L | SODIUM [3]: 143.17 MEQ/L | TOTAL BILIRUBIN [3]: 0.1 mg/dL | TOTAL PROTEIN [3]: 5.67 G/DL | URIC ACID [3]: 1.53 mg/dL | ABSOLUTE BASOPHIL [4]: 0 CELLS/uL | ABSOLUTE EOSINOPHIL [4]: 0 CELLS/uL | ABSOLUTE LYMPHOCYTE [4]: 12219.33 CELLS/uL | ABSOLUTE MONOCYTE [4]: 47.33 CELLS/uL | ABSOLUTE SEGMENTED NEUTROPHIL [4]: 1100 CELLS/uL | BASOPHIL [4]: 0% | EOSINOPHIL [4]: 0% | ERYTHROCYTE COUNT [4]: 5.81 x10E6/uL | HEMATOCRIT [4]: 35.17% | HEMOGLOBIN [4]: 14.03 G/DL | LEUKOCYTE COUNT [4]: 13.37 x10E3/uL | LYMPHOCYTE [4]: 91.33% | MEAN CORPUSCULAR HEMOGLOBIN [4]: 24.23 pg | MEAN CORPUSCULAR HEMOGLOBIN CONCENTRATION [4]: 39.9 G/DL | MEAN CORPUSCULAR VOLUME [4]: 60.63 fL | MONOCYTE [4]: 0.33% | NEUTROPHIL [4]: 8.33% | NUCLEATED RED BLOOD CELLS [4]: 0 /100WBC | PLATELET COUNT [4]: 1215 x10E3/uL | ALANINE AMINOTRANSFERASE [4]: 48 u/L | ALBUMIN [4]: 4.47 G/DL | ALKALINE PHOSPHATASE [4]: 278.33 u/L | ASPARTATE AMINOTRANSFERASE [4]: 72.33 u/L | BLOOD UREA NITROGEN [4]: 14.67 mg/dL | CARBON DIOXIDE [4]: 25.67 mmol/L | CHLORIDE [4]: 102.33 MEQ/L | CHOLESTEROL [4]: 53 mg/dL | CREATINE PHOSPHOKINASE [4]: 231 u/L | CREATININE [4]: 0.16 mg/dL | GLUCOSE [4]: 153 mg/dL | LACTATE DEHYDROGENASE [4]: 157.33 u/L | LIPASE [4]: 9.67 u/L | PHOSPHORUS [4]: 11.6 mg/dL | POTASSIUM [4]: 6.76 MEQ/L | SODIUM [4]: 145.4 MEQ/L | TOTAL BILIRUBIN [4]: 0.2 mg/dL | TOTAL PROTEIN [4]: 6.17 G/DL | URIC ACID [4]: 1.9 mg/dL
